From PubChem BioAssay AID248 (DTP/NCI, 2004)
Several values for one entry are separate records, joined by “and”; a condition that tells them apart may be missing. Equal entries are not always repeated. Inconclusive results and toxic doses are left out. No stated cut-off is given here; in the data, active means T/C of 150% or more; inactive means T/C below 125%.

Test system: L1210 leukemia ip in BDF1 mice, survival T/C
Test: NCI In Vivo Anticancer Drug Screen. Data for tumor model L1210 Leukemia (intraperitoneal) in B6D2F1 (BDF1) mice
Conditions: endpoint: mean survival time, higher = longer survival
Procedure, shortened: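 Read-out is survival time, reported as the treated-group measurement over the vehicle-control measurement.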

[1] = dose: 12.5 mg/kg/injection, schedule: Q01DX009 (ip), vehicle: Klucel (hydroxypropylcellulose) (HPC)
[2] = dose: 25.0 mg/kg/injection, schedule: Q01DX009 (ip), vehicle: Klucel (hydroxypropylcellulose) (HPC)
[3] = dose: 50.0 mg/kg/injection, schedule: Q01DX009 (ip), vehicle: Klucel (hydroxypropylcellulose) (HPC)
[4] = dose: 100.0 mg/kg/injection, schedule: Q01DX001 (ip), vehicle: saline
[5] = dose: 100.0 mg/kg/injection, schedule: Q01DX009 (ip), vehicle: Klucel (hydroxypropylcellulose) (HPC)
[6] = dose: 200.0 mg/kg/injection, schedule: Q01DX001 (ip), vehicle: saline
[7] = dose: 200.0 mg/kg/injection, schedule: Q01DX009 (ip), vehicle: Klucel (hydroxypropylcellulose) (HPC)
[8] = dose: 100.0 mg/kg/injection, schedule: Q04DX003 (ip), vehicle: saline with Tween-80
[9] = dose: 200.0 mg/kg/injection, schedule: Q04DX003 (ip), vehicle: saline with Tween-80
[10] = dose: 400.0 mg/kg/injection, schedule: Q04DX003 (ip), vehicle: saline with Tween-80
[11] = dose: 75.0 mg/kg/injection, schedule: Q01DX001 (ip), vehicle: saline
[12] = dose: 150.0 mg/kg/injection, schedule: Q01DX001 (ip), vehicle: saline
[13] = dose: 300.0 mg/kg/injection, schedule: Q01DX001 (ip), vehicle: saline
[14] = dose: 100.0 mg/kg/injection, schedule: Q04DX003 (ip), vehicle: Klucel (hydroxypropylcellulose) (HPC)
[15] = dose: 200.0 mg/kg/injection, schedule: Q01DX009 (ip), vehicle: saline with Tween-80
[16] = dose: 200.0 mg/kg/injection, schedule: Q04DX003 (ip), vehicle: Klucel (hydroxypropylcellulose) (HPC)
[17] = dose: 400.0 mg/kg/injection, schedule: Q04DX003 (ip), vehicle: Klucel (hydroxypropylcellulose) (HPC)
[18] = dose: 400.0 mg/kg/injection, schedule: Q01DX009 (ip), vehicle: Klucel (hydroxypropylcellulose) (HPC)
[19] = dose: 100.0 mg/kg/injection, schedule: Q04DX002 (ip), vehicle: Klucel (hydroxypropylcellulose) (HPC)
[20] = dose: 100.0 mg/kg/injection, schedule: Q01DX009 (ip), vehicle: saline with Tween-80
[21] = dose: 400.0 mg/kg/injection, schedule: Q01DX009 (ip), vehicle: saline with Tween-80
[22] = dose: 100.0 mg/kg/injection, schedule: Q01DX001 (ip), vehicle: carboxymethylcellulose (CMC)
[23] = dose: 200.0 mg/kg/injection, schedule: Q01DX001 (ip), vehicle: carboxymethylcellulose (CMC)
[24] = dose: 400.0 mg/kg/injection, schedule: Q01DX001 (ip), vehicle: carboxymethylcellulose (CMC)
[25] = dose: 100.0 mg/kg/injection, schedule: Q01DX001 (ip), vehicle: saline with Tween-80
[26] = dose: 200.0 mg/kg/injection, schedule: Q01DX001 (ip), vehicle: saline with Tween-80
[27] = dose: 400.0 mg/kg/injection, schedule: Q01DX001 (ip), vehicle: saline with Tween-80
[28] = dose: 200.0 mg/kg/injection, schedule: Q01DX001 (ip), vehicle: other
[29] = dose: 400.0 mg/kg/injection, schedule: Q01DX001 (ip), vehicle: other

Measured: T/C

CSc1cc(C)[o+]c(C)c1
inactive: [1] 108 % of control | [2] 112 % of control | [3] 105 % of control | dose: 75.0 mg/kg/injection, schedule: Q01DX009 (ip), vehicle: acetone 110 % of control | [4] 97 % of control | [5] 120 % of control | dose: 115.0 mg/kg/injection, schedule: Q01DX009 (ip), vehicle: acetone 103 % of control | dose: 170.0 mg/kg/injection, schedule: Q01DX009 (ip), vehicle: acetone 95 % of control | [6] 103 % of control | [7] 106 % of control | dose: 255.0 mg/kg/injection, schedule: Q01DX009 (ip), vehicle: acetone 110 % of control

O=C(Nc1cc(Cl)ccc1Cl)C(Cl)(Cl)Cl
inactive: dose: 100.0 mg/kg/injection, schedule: Q01DX001 (ip), vehicle: Klucel (hydroxypropylcellulose) (HPC) 97 % of control | dose: 200.0 mg/kg/injection, schedule: Q01DX001 (ip), vehicle: Klucel (hydroxypropylcellulose) (HPC) 103 % of control | dose: 400.0 mg/kg/injection, schedule: Q01DX001 (ip), vehicle: Klucel (hydroxypropylcellulose) (HPC) 93 % of control

COP(=O)(NNc1cc(Cl)ccc1Cl)OC
inactive: [8] 104 % of control | [9] 106 % of control | [10] 101 % of control

CC(C)(C)N1CCC1CN (stereo not drawn)
inactive: [11] 104 % of control | [12] 102 % of control | [13] 102 % of control

O=C(OC12CCCCC1CCCC2)c1ccc([N+](=O)[O-])cc1 (stereo not drawn)
inactive: [14] 96 % of control | [15] 90 % of control | [16] 101 % of control | [17] 96 % of control

OC(CCN1CCCCC1)(c1ccccc1)C1CC2C=CC1C2 (stereo not drawn)
inactive: dose: 6.25 mg/kg/injection, schedule: Q01DX009 (ip), vehicle: Klucel (hydroxypropylcellulose) (HPC) 106 % of control | [1] 105 % of control | [2] 100 % of control | dose: 25.0 mg/kg/injection, schedule: Q04DX003 (ip), vehicle: Klucel (hydroxypropylcellulose) (HPC) 106 % of control | [3] 105 % of control | dose: 50.0 mg/kg/injection, schedule: Q04DX003 (ip), vehicle: Klucel (hydroxypropylcellulose) (HPC) 97 % of control | [5] 103 % of control | [14] 95 % of control

O=C(Nc1ccc(F)cc1)Nc1cccc(C(=O)O)c1
inactive: [5] 96 % of control | [14] 96 % of control | [7] 107 % of control | [16] 100 % of control | [18] 95 % of control | [17] 105 % of control

COc1cc(/C(C)=C2\SC(=O)NC2=O)ccc1O
inactive: [4] 106 % of control | [6] 95 % of control | dose: 400.0 mg/kg/injection, schedule: Q01DX001 (ip), vehicle: saline 98 % of control

CCOC(=O)CSc1ccc2ccccc2[n+]1-c1ccccc1
inactive: [4] 99 % of control | [6] 94 % of control

CC1(C(N)=O)OC12CCCCC2CCC(=O)O (stereo not drawn)
inactive: [14] 102 % of control | [16] 93 % of control | [17] 93 % of control

NC(=Nc1ccccc1)c1ccc(Cl)cc1
inactive: dose: 25.0 mg/kg/injection, schedule: Q04DX002 (ip), vehicle: Klucel (hydroxypropylcellulose) (HPC) 93 % of control | dose: 50.0 mg/kg/injection, schedule: Q04DX002 (ip), vehicle: Klucel (hydroxypropylcellulose) (HPC) 97 % of control | [19] 101 % of control and 115 % of control

N/C(=N\N=C\c1c(F)c(F)c(F)c(F)c1F)N[N+](=O)[O-]
inactive: [20] 102 % of control | [15] 97 % of control | [21] 94 % of control

CC(=O)Nc1ccc(S(=O)(=O)NC(=O)NCCC(C)C)cc1
inactive: [8] 94 % of control | [9] 102 % of control | [10] 102 % of control

CC1CC(C)(C)CC2(C1)OCC(CCl)O2 (stereo not drawn)
inactive: dose: 100.0 mg/kg/injection, schedule: Q04DX003 (ip), vehicle: saline sonified 100 % of control | dose: 200.0 mg/kg/injection, schedule: Q04DX003 (ip), vehicle: saline sonified 98 % of control | dose: 400.0 mg/kg/injection, schedule: Q04DX003 (ip), vehicle: saline sonified 96 % of control

CCOC(=O)NC1CC2CCC1C2 (stereo not drawn)
inactive: dose: 50.0 mg/kg/injection, schedule: Q01DX001 (ip), vehicle: carboxymethylcellulose (CMC) 110 % of control | [22] 103 % of control | [23] 103 % of control | [24] 103 % of control

Cc1cc(=O)cc(C(=O)O)o1
inactive: [11] 107 % of control | [12] 107 % of control | [13] 109 % of control

CCN(CC)CN1C(=O)C(=O)c2ccccc21
inactive: dose: 100.0 mg/kg/injection, schedule: Q01DX001 (ip), vehicle: steriod suspending solution 92 % of control | dose: 200.0 mg/kg/injection, schedule: Q01DX001 (ip), vehicle: steriod suspending solution 108 % of control | dose: 400.0 mg/kg/injection, schedule: Q01DX001 (ip), vehicle: steriod suspending solution 114 % of control

CC(=O)OCC1OCOC2C(C(N)=O)OCOC12 (stereo not drawn)
inactive: [4] 103 % of control | [6] 103 % of control

CC(=O)c1cccc(NC(=O)Nc2ccccc2)c1
inactive: [5] 94 % of control | [14] 100 % of control | [7] 98 % of control | [16] 96 % of control | [18] 100 % of control | [17] 97 % of control

CCCCS(=O)(=O)N1CCC(C)CC1
inactive: [19] 87 % of control | dose: 200.0 mg/kg/injection, schedule: Q04DX002 (ip), vehicle: Klucel (hydroxypropylcellulose) (HPC) 91 % of control | dose: 400.0 mg/kg/injection, schedule: Q04DX002 (ip), vehicle: Klucel (hydroxypropylcellulose) (HPC) 94 % of control

O=C(Nc1ccccc1)SCCSC(=O)Nc1ccccc1
inactive: [25] 88 % of control | [8] 97 % of control | [26] 88 % of control | [9] 88 % of control | [27] 90 % of control | [10] 87 % of control

O=C(CCCC(=O)N/N=C/c1ccc(Cl)cc1)N/N=C\c1ccc(Cl)cc1
inactive: dose: 50.0 mg/kg/injection, schedule: Q01DX001 (ip), vehicle: other 102 % of control | [28] 91 % of control | [29] 91 % of control

CCOC(=O)N1CCc2nc3ccc(Cl)cc3cc21
inactive: [25] 95 % of control | [20] 104 % of control | [26] 93 % of control | [15] 110 % of control | [27] 98 % of control | [21] 106 % of control

CCOC1CC2(c3ccccc3)OC(=O)OC12c1ccccc1 (stereo not drawn)
inactive: dose: 25.0 mg/kg/injection, schedule: Q04DX002 (ip), vehicle: saline with Tween-80 115 % of control | dose: 50.0 mg/kg/injection, schedule: Q04DX002 (ip), vehicle: saline with Tween-80 101 % of control | dose: 100.0 mg/kg/injection, schedule: Q04DX002 (ip), vehicle: saline with Tween-80 115 % of control

CNS(=O)(=O)c1ccc(NC(=O)CCl)cc1
inactive: dose: 50.0 mg/kg/injection, schedule: Q01DX009 (ip), vehicle: saline with Tween-80 104 % of control | dose: 100.0 mg/kg/injection, schedule: Q01DX001 (ip), vehicle: other 104 % of control | [20] 110 % of control | dose: 100.0 mg/kg/injection, schedule: Q04DX003 (ip), vehicle: other 101 % of control | [28] 103 % of control | [15] 119 % of control | dose: 200.0 mg/kg/injection, schedule: Q04DX003 (ip), vehicle: other 98 % of control | [29] 100 % of control

CCC(=O)O[C@H]1CC[C@H]2[C@@H]3[C@H](C)CC4=CC(=O)CC[C@]4(C)[C@H]3CC[C@]12C
inactive: [22] 97 % of control | [23] 94 % of control | [24] 90 % of control
